Experimental data published in patent US8257965B2, “Arrays of biological membranes and methods and use thereof” (Corning Incorporated, priority 2001, dated 2012).

Key:
[1] = molecular target: T1, neurotensin receptor subtype 1 (NTR1) (Homo sapiens, UniProt P30989); assay: Competition binding of BT-neurotensin to NTR1 receptor arrays on CMT-GAPS slides; conditions: BT-NT 2 nM, unlabeled ligand 1 μM
T1 construct: purchased Perkin Elmer Life Science (Boston, Mass.)

α2A = molecular target: T2, α2A (Homo sapiens, UniProt P08913); conditions: known value; cited from earlier work
T2 sequence (P08913 1-465): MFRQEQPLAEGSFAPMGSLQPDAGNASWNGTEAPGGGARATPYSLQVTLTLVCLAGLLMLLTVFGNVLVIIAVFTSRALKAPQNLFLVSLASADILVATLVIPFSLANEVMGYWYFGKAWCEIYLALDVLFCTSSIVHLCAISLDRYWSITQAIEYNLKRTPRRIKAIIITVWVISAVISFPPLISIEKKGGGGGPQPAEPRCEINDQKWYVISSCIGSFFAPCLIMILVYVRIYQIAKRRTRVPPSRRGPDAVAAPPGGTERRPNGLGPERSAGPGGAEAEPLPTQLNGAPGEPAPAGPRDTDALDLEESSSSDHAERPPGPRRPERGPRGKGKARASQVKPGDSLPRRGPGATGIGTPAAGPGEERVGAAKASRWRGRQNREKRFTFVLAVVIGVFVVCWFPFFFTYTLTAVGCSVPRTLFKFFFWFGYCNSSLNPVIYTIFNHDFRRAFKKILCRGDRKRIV

β1 = β1 (Homo sapiens, UniProt P08588); assay: Family-specific adrenergic receptor array, competition with BODIPY-TMR-CGP12177; format: binding
Description: FIGS. 9A, 9B and 9C illustrate GPCR theme arrays used to differentiate the selectivity of compounds of interest to receptors relating to a single subfamily. Multiple arrays of β1, β2 and α2A were fabricated on an APTES-modified gold surface. Within each array there were three columns of five replicates, corresponding to β1, β2 and α2A from the left to right column, respectively. The array incubated with 5 nM BT-CGP only was used as positive control (FIG. 9A). […] Three receptors belonging to the same family, adrenergic receptors, were arrayed within a single grid, and replicates of this grid were arrayed on a single slide. The receptors were β1, β2 and α2A, respectively.

Gi2 = Gi2 (Homo sapiens, UniProt P04899); conditions: unactivated form, reconstituted vesicle systems (McEwen et al.); cited from earlier work
Gi1 = Gi1 (Homo sapiens, UniProt P63096); conditions: unactivated form, reconstituted vesicle systems (McEwen et al.); cited from earlier work
Go = Go (Homo sapiens, UniProt P09471); conditions: unactivated form, reconstituted vesicle systems (McEwen et al.); cited from earlier work
Gs = Gs (Homo sapiens, UniProt P63092); conditions: unactivated form, reconstituted vesicle systems (McEwen et al.); cited from earlier work
Sequence of Gs (P63092 whole entry): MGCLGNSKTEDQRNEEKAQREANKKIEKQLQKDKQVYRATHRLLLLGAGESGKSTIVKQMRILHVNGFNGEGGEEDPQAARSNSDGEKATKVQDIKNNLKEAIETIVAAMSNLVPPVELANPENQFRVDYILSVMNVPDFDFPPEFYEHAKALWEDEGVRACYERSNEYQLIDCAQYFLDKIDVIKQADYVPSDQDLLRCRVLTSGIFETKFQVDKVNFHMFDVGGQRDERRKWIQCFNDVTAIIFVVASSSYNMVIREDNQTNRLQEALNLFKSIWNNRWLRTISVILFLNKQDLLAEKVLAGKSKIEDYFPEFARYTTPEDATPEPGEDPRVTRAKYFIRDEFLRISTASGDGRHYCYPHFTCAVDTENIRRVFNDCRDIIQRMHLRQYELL

Sequence of β1 (P08588 whole entry): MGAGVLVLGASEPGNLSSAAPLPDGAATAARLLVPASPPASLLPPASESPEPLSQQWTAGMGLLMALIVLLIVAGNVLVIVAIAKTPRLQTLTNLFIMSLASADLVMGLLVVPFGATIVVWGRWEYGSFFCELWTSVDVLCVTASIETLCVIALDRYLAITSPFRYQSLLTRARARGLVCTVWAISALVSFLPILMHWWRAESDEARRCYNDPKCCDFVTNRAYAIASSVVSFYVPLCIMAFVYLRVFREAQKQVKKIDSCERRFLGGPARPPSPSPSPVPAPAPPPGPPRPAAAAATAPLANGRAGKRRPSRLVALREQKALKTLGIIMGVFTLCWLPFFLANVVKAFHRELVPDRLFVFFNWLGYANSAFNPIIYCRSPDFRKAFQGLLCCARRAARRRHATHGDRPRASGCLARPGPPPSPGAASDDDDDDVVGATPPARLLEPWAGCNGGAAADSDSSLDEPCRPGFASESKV
Sequence of Go (P09471 whole entry): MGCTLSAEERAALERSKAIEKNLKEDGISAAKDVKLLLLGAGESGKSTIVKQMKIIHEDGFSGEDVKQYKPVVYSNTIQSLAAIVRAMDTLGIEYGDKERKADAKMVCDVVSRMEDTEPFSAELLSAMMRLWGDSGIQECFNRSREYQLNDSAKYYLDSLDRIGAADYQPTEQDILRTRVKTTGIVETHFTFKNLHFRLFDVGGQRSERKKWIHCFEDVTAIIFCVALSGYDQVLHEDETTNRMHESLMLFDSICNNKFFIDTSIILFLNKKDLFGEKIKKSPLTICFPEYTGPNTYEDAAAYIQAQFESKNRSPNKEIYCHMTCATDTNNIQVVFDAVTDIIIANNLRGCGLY
Sequence of Gi1 (P63096 whole entry): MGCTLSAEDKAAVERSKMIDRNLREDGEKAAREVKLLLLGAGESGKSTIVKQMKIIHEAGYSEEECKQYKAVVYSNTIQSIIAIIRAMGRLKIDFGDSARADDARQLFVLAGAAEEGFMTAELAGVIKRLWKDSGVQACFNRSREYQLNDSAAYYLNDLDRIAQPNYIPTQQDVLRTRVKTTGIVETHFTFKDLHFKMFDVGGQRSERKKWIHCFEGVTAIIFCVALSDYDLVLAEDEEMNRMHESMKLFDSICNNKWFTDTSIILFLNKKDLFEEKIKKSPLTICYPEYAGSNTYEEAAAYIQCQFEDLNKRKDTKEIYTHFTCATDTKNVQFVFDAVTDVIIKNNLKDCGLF
T1 sequence (P30989 whole entry): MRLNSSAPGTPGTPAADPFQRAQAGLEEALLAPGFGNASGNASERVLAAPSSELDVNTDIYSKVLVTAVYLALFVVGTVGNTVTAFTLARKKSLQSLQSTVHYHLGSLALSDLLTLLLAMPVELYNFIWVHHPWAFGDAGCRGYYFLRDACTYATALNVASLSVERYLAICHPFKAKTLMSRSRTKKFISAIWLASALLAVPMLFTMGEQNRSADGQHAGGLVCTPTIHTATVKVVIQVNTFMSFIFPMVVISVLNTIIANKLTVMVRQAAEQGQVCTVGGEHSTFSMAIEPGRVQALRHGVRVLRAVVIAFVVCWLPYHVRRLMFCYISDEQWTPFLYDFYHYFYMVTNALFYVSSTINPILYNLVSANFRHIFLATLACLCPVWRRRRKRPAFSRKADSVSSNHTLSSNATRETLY
Sequence of Gi2 (P04899 whole entry): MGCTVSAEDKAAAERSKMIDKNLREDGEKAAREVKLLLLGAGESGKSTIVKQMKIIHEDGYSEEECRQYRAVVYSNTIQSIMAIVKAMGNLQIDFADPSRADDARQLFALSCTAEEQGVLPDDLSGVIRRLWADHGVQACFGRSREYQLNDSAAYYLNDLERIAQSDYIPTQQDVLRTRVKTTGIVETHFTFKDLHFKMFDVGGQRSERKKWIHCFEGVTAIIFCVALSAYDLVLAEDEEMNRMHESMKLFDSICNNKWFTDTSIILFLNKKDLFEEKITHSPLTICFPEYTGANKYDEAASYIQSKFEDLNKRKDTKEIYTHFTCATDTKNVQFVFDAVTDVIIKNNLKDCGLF

CC(C)(C)NCC(O)COc1cccc2[nH]c(=O)[nH]c12 (centres unmarked) [CGP12177]
effect on intensities of NTR1 spots (inhibition of BT-NT binding) [1]: no significant decrease

Cc1ccc(OCC(O)C(C)NC(C)C)c2c1CCC2 (centres unmarked) [ICI 118551]
Ki (α2A): > 10000 nM | fluorescence intensity of the β1 receptors (β1; 5 nM BODIPY-TMR-CGP12177, 10 nM ICI118551): remains almost at the same level | fluorescence intensity of β1 (β1; 5 nM BODIPY-TMR-CGP12177, 500 nM ICI118551): dramatically decreases

BODIPY-FL-GTPγS
Kd (Gi2): 300 nM | Kd (Gi1): 150 nM | Kd (Go): 6 nM | Kd (Gs): 70 nM
